Reference: patent US5382586A, “Aryl (or heteroaryl)piperazinylalkylazole derivatives, their preparation and their application as medicaments” (priority 1991, dated 1995)

Key:
[1] = system: conditioned avoidance response in male Wistar rats; experiment: conditioned avoidance response test (inhibition of the conditioned avoidance response; anxiolytic/tranquillising activity); assay type: in vivo, rat (male Wistar); details: rat
Description: Male Wistar rats weighing 200 grammes which have been trained to jump over a barrier in an avoidance and escape cage (shuttle box) (Letica, reference LI 910 and LI 2700) within 30 seconds of their being introduced into the cage are used in this test.
The products having an anxiolytic or tranquillising activity suppress the conditioned avoidance response.
Training: day one: 11 trials at 3 minute intervals. Electric shock to the paws after 30 seconds (5 mA, 0.1 s, 10 s).
Days two and three: 2 trials per day, with the selected rats only [sum of the scores for the first day (with the exception of the first trial)>14].
Test day: groups formed by selected rats. Oral administration of the product or the vehicle 45 minutes before the start of the study.

[2] = system: mice, abstinence syndrome induced by cocaine, diazepam, alcohol or nicotine; experiment: light box/dark box test: inhibition of the abstinence syndrome; assay type: in vivo, mouse; design: Time in box, dark (D) / Latent period L-D: unit not given here
Description: The light box/dark box test described by B. Costall et al. (J. Phar. Pharmacol., 1988, 40: 494-500) is used. The mouse is placed in the light zone of a box divided into two compartments, one brightly illuminated, the light box, and the other with little illumination, the dark box.
1) The number of times the mouse stands up on the hind paws in each compartment during a 5 minute period is counted (see Column 1 of Table V).
2) The activity in each compartment is given by counting the number of crossings through the squares which form the divisions of each compartment (see Column 2 of Table V).
3) The time passed in the dark box during the 5 minute counting period is determined (see Column 3 of Table 5).
4) The initial latent period is determined, that is to say the time which elapses after the animal is placed in the light box, at the start of the test, before it enters the dark box (see Column 4 of Table 5).
1) Dependency on a given treatment (diazepam, cocaine, alcohol or nicotine) employing daily administration over a period of 7 or 14 days.
Diazepam: 10 mg/kg i.p. twice per day over a period of 7 days.
Cocaine: 1 mg/kg i.p. over a period of 14 days.
Alcohol: Administered at 8% weight/volume in the drinking water over a period of 14 days. Nicotine: 0.1 mg/kg i.p. twice per day over a period of 7 days.
3) Other different groups receive, in addition to diazepam, cocaine, alcohol or nicotine, a concomitant treatment with products which are the subject of the present invention and, by way of comparison, with buspirone or ipsapirone.
The product described and the doses tested were: 4,5-dichloro-2-methyl-1-{4-[4-(2-pyrimidinyl)-1-piperazinyl]-butyl}-1H-imidazole citrate.
1 μg/kg p.o. twice per day.

[3] = system: norepinephrine-induced death in rats; experiment: norepinephrine antagonism test in rats (antihypertensive activity); assay type: in vivo, rat (male Wister); details: D = 40 mg/kg, i.p.; rat; norepinephrine 1.25 mg/kg i.v. after 2 hours
Description: This activity is manifested by the protection of animals before death induced by an intravenous injection of norepinephrine, which produces a hypertensive attack in rats.
Male Wister rats weighing 200 grammes are used in this test. The product to be studied is administered intraperitoneally and 1.25 mg/kg (i.v.) of norepinephrine are administered after 2 hours.
The initial administration dose in these studies is 40 mg/kg (i.p.).

immobility of mice = experiment: desperate behaviour test (antidepressant activity); assay type: in vivo, mouse; details: i.p.
Description: The desperate behaviour test in mice, described by R. D. Porsolt et al. (Arch. Int. Pharmacodyn. 1977, 229, 327-336), is used.
The animals are placed for 6 minutes in a cylinder containing water, from which they are not able to escape. The period of immobility between minutes 2 and 5 is determined for groups of 10 mice per dosage tested.
The product studied is administered i.p. 1 hour before the test. In this test the immobility of the animals is explained as being produced by their depressed state resulting from being faced with an adverse and insoluble situation in a hostile environment such as water.
In our test imipramine (30 mg/kg; i.p.) was used as reference product.

[4] = 24 h after stopping alcohol (alone, or with the named product; Ex. 42 at 1 μg/kg p.o. twice per day)
[5] = 24 h after stopping cocaine (alone, or with the named product; Ex. 42 at 1 μg/kg p.o. twice per day)
[6] = 24 h after stopping diazepam (alone, or with the named product; Ex. 42 at 1 μg/kg p.o. twice per day)
[7] = 24 h after stopping nicotine (alone, or with the named product; Ex. 42 at 1 μg/kg p.o. twice per day)

Cc1nc(Cl)c(Cl)n1CCCCN1CCN(c2ncccn2)CC1.O=C(O)CC(O)(CC(=O)O)C(=O)O [Example 42, 4,5-dichloro-2-methyl-1-{4-[4-(2-pyrimidinyl)-1-piperazinyl]-butyl}-1H-imidazole citrate]
Activity % (inhibition of the conditioned avoidance response) ([1]; D = 80 mg/kg, p.o., 45 min before test): 82%
ED50 ([1]; po, 0.75 h): 24.5 mg/kg
Activity within 5 min period, dark box (D) [2, 4]: 23
Activity within 5 min period, light box (L) [2, 4]: 97
Latent period L-D [2, 4]: 20
Number of times standing erect within 5 min. period, dark box (D) [2, 4]: 17
Number of times standing erect within 5 min. period, light box (L) [2, 4]: 86
Time in box, dark (D) [2, 4]: 26
Activity within 5 min period, dark box (D) [2, 5]: 23
Activity within 5 min period, light box (L) [2, 5]: 92
Latent period L-D [2, 5]: 26
Number of times standing erect within 5 min. period, dark box (D) [2, 5]: 20
Number of times standing erect within 5 min. period, light box (L) [2, 5]: 86
Time in box, dark (D) [2, 5]: 30
Activity within 5 min period, dark box (D) [2, 6]: 19
Activity within 5 min period, light box (L) [2, 6]: 96
Latent period L-D [2, 6]: 28
Number of times standing erect within 5 min. period, dark box (D) [2, 6]: 17
Number of times standing erect within 5 min. period, light box (L) [2, 6]: 85
Time in box, dark (D) [2, 6]: 36
Activity within 5 min period, dark box (D) [2, 7]: 20
Activity within 5 min period, light box (L) [2, 7]: 102
Latent period L-D [2, 7]: 23
Number of times standing erect within 5 min. period, dark box (D) [2, 7]: 18
Number of times standing erect within 5 min. period, light box (L) [2, 7]: 90
Time in box, dark (D) [2, 7]: 29
anxiolytic response when the administration is stopped ([2]; diazepam, cocaine, alcohol or nicotine stopped, 1 μg/kg p.o. twice per day): maintains a significant anxiolytic response
inhibition of the abstinence syndrome ([2]; induced by diazepam, cocaine, alcohol and nicotine, 1 μg/kg p.o. twice per day): inhibits the abstinence syndrome
Activity % (norepinephrine antagonistic antihypertensive activity) [3]: 0%
Period of immobility (immobility of mice; 1 mg/kg, p < 0.05, control 118 s): 64 s
antidepressant activity (reduction of the period of immobility) (immobility of mice; mice): significantly reduces the period of immobility
